Consider seven compounds from patent US5523296A, “1,3-benzodioxole and 1,2-dialkoxybenzene derivatives as ocular hypotensive agents” (Allergan, Inc., priority 1994, dated 1996).

Test [1] relates to intraocular pressure in dog eyes. As to the kind of experiment: intraocular pressure in eyes of dogs (pneumatonometry). In kind it is in vivo, beagle dogs. The note with it: 6 hours after administr., dog eye. The procedure: The assay is descibed as follows: male and female beagle dogs weighing 10-15 kg had been trained for a minimum of 2 months so that intraocular pressure could be measured without the use of restraining devices. Intraocular pressure was measured by pneumatonometry using applanation tonometers (Alcon). One minute prior to tonometry, 25 μl of proparacaine (Allergan, Irvine Calif.) was applied to minimize ocular discomfort during the procedure. Determination of the effects of the compounds of the invention on intraocular pressure involved administration of 1 to 25 μl of solution of the compound to one eye and an equal volume of vehicle to the contralateral eye as a control.
The effect of the compounds of the invention to lower intraocular pressure in dog eyes, in accordance with the above-described assay is shown in Table 1 with respect to the following compounds: […]

Test [2] has as its system Swiss 3T3 cells. As to the kind of experiment: inhibition of DNA synthesis: incorporation of tritium labeled thymidine into Swiss 3T3 cells. In kind it is cell-based, mouse. The note with it: 22 hours incubation, 5 hours pulse-labeling, CPM per μg DNA, mean of quadruplicates, vehicle 2601. The procedure: In addition, compounds of the invention were also found to inhibit DNA synthesis as observed in an assay where the incorporation of tritium labeled thymidine into Swiss 3T3 cells is measured. The assay is described as follows.
Swiss mouse 3T3 cells were maintained in Dulbecco's modified Eagle's medium (DMEM) low glucose and supplemented with 10% fetal bovine serum FBS), 2 mM 1-glutamine and 1% antibiotic-antimycotic 100×. The cultures were incubated in 5% CO2 in air at 37° C. Confluent cultures were trypsinized and plated in quadruplicate cultures for experiments. Cells were plated at 1×10^5 cells per 35 mm well in DMEM containing 10% FBS in 6-well cluster plates and allowed to become confluent in 3 days. The cells were then made quiescent by washing them with Hank's balanced salt solution (HBSS) and incubating them for 24 hours in DMEM with 0.5% FBS. The cultures were then refed fresh DMEM containing 0.5% FBS and various concentrations of the test compounds. All compounds were dissolved in absolute ethanol, diluted with sterile filtered normal saline and added to the medium so that the final ethanol control cultures were incubated in medium containing 0.01% or less […]. […]
Pulse-labeling of the cultures consisted of collecting the conditioned, drug-treated or control containing media, then adding 1μ Ci/ml [^3 H]-TdR and incubating the cultures in the [^3 H]-TdR containing medium for 5 hours. […] Radioactivity was measured by liquid-scintillation counting using Beckman HP cocktail. […] After centrifugation as before, an aliquot of the supernatant containing [^3 H]-TdR incorporated into DNA (S2) was assayed for radioactivity by scintillation counting.
An aliquot of the remaining S2 supernatant was assayed for quantity of DNA by the diphenylamine method. […] Absorbance of the DNA standards and samples was measured in a Beckman Biomek spectrophotometer at 600 nm wavelength.
The data was expressed as CPM ([^3 H]-TdR incorporated into DNA) per μg DNA and the mean of the quadruplicate samples was obtained for each experiment. […]

Take `OCCCCCc1cc2c(cc1C(O)CCc1ccccc1)OCO2` (racemic) [Compound 2, (±)-5-[6-(1-hydroxy-3-phenylpropyl)]-1,3-benzodioxol-5yl]pentanol]: in test [1] (0.1 %), the “Change in IOP” value is given as -1.25 mm of Hg. On the same count and under the same terms, the same measure for `CCCCCC(O)c1cc(OC)c(OC)cc1CCCCC(=O)O` (racemic) [Compound 4, (±)-5-[2-(1-Hydroxy)hexyl-4,5-dimethoxyphenyl-]-1-pentanoic acid]: -1.2 mm of Hg. Turning to `CCCCCC(O)c1cc2c(cc1CCCCC(=O)O)OCO2` (racemic) [Compound 5, (±)-5-[6-(1-hydroxy)hexyl]-1,3-benzodioxol-5-yl]-pentanoic acid], the “CPM ([3H]-TdR incorporated into DNA)” value is 1454 CPM in test [2] (10^-5 M), 1598 CPM in test [2] (10^-6 M) and 2102 CPM in test [2] (10^-7 M). `CCCCCC(O)c1cc2c(cc1CCCCCO)OCO2` (racemic) [Compound 3, (±)-5-[6-(1-hydroxy)hexyl]-1,3-benzodioxol-5-yl]-pentanol]: the “Change in IOP” value is recorded as -3.0 mm of Hg in test [1] (0.01 %) and -4.2 mm of Hg in test [1] (0.1 %). Regarding `OCCCCCc1cc2c(cc1C(O)CCc1cccs1)OCO2` (racemic) [Compound 6, (±)-5-[[6-(1-hydroxy-3-(2-thienyl)propyl]-1,3-benzodioxolyl]pentanol], the “Change in IOP” value in test [1] (0.1 %) was -1.1 mm of Hg. Still for that read-out and setting: with `COC(=O)CCCCc1cc2c(cc1C(O)CCc1ccccc1)OCO2` (racemic) [Compound 1, (±)-Methyl5-[6-(1-hydroxy-3-phenylpropyl)]-1,3-benzodioxol-5-yl]-pentanoate] the figure was -1.0 mm of Hg. Same read-out and setting: with `O=C(O)CCCCc1cc2c(cc1C(O)CCc1cccs1)OCO2` (racemic) [Compound 7, (±)-5-[[6-(1-hydroxy-3-(2-thienyl)propyl)]-1,3-benzodioxolyl]pentanoic acid] the figure was -1.0 mm of Hg.
